The supplement of paper PMC5770543
± gives the standard deviation.

Tests used:
[1] = tested on: Plasmodium falciparum 3D7; test: % inhibition of schizont-to-ring transition vs DMSO; higher = more inhibition
How it was run: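 Schizont-to-ring transition inhibition is the formation of new rings relative to vehicle controls. Tightly synchronised P. falciparum schizonts at about 40–42 hours post-invasion (1% parasitemia, 2.5% hematocrit, AlbuMAX-supplemented RPMI) were treated with compound at 1, 3 or 10 µM, alongside vehicle and positive controls. After glutaraldehyde fixation, Triton permeabilisation and Hoechst 33342 staining, at least 100,000 events were counted by flow cytometry, and values are the mean of three experiments.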

[2] = tested on: Toxoplasma gondii RH tachyzoites; test: % growth inhibition vs DMSO (48 h luciferase); higher = more inhibition; settings: 10 µM;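 also: tested in triplicate wells of 96-well plates on confluent HFF monolayers, with 1% DMSO wells as negative control in four replicates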
[3] = tested on: Plasmodium falciparum 3D7; test: EC50 growth inhibition (60 h, SYBR Green); settings: stage: ring-stage start

SMILES | % inhibition of schizont-to-ring transition ([1]; 1 µM) [%] | % inhibition of schizont-to-ring transition ([1]; 3 µM) [%] | % inhibition of schizont-to-ring transition ([1]; 10 µM) [%] | % growth inhibition [2] [%] | EC50 growth inhibition [3] [nM]
Cc1cc(Nc2ccc(Cl)cc2)n2nc(C(F)(F)F)nc2n1 | 52.9 | 59.3 | 58.4 | 62.7 ± 3.6 | 56.2
COc1ccc(-c2nc(NC(=O)CS(=O)(=O)c3ccc(F)cc3)sc2C)cc1 | 9.86 | 32.3 | 43.6 | 69.4 ± 1.6 | 405
COC(=O)c1ccc(Cl)c2c1C1C=CCC1C(c1cccc3ccccc13)N2 (stereo not drawn) | 8.04 | 15 | 46.6 | 55.6 ± 32 | 6220
CCCCOc1ccc(C(=O)Nc2cc(C)on2)cc1 | 4.53 | 20.6 | 35.9 | < 0 | 5760
CCOC(=O)C1=C(C)N=c2sc(=Cc3cc(Cl)ccc3O)c(=O)n2C1c1ccc(OC)cc1 (stereo not drawn) | 0.526 | 46.2 | 61.3 | 59.4 ± 6.4 | –
COc1ccc(C(C)=O)cc1N1C(=O)C2C(C1=O)C1(c3ccccc3)C(=O)C2(c2ccccc2)C(c2ccc(C)cc2)=C1c1ccc(C)cc1 (stereo not drawn) | 7.25 | 20.5 | 44.9 | 79.2 ± 1.3 | 273
CCCN(CCC)CCCNC(=O)c1cc2c(-c3ccc(OC)c(OC)c3)nn(C)c2s1 | 14.9 | 37.6 | 68 | 41.4 ± 13 | 1120
COc1cccc(C(=O)Nc2ccc(-c3nc4ccccc4[nH]3)cc2)c1 | 3.81 | 12.6 | 34.9 | 53.9 ± 1.5 | 1620
COc1cccc(C=Cc2nc(=O)c3ccccc3o2)c1OC | 34.9 | 40.3 | 49.7 | 70.48 ± 0.68 | 317
Cc1ccc(Nc2nc(-c3ccccn3)cs2)cc1 | 24.9 | 40.7 | 28.2 | 99.62 ± 0.17 | 3060
Oc1c2c(nc3cc(-c4ccccc4)nn13)CCCC2 | 0.423 | 6.47 | 21.9 | 26.5 ± 12 | 3790
COc1ccc(-c2cn3c(C(=O)Nc4ccccc4Cl)c(-c4ccccc4)c4c3n2CCCC4)cc1 | 12.5 | 30.4 | 62.3 | 42.7 ± 28 | 7130
O=C1CC(O)(C(F)(F)C(F)(F)F)Oc2ccccc21 (stereo not drawn) | 5.46 | 15.3 | 47.7 | 65.3 ± 2.5 | 3000
O=C(NC1CCN(Cc2ccccc2)CC1)c1cc(-c2ccncc2)nc2ccc(Cl)cc12 | 22.1 | 60.9 | 63.4 | 54.7 ± 2.7 | 1920
CN1CCN(c2ncnc3c2[nH]c2ccc(Cl)cc23)CC1 | 34 | 43.8 | 54.7 | 28.6 ± 4.2 | 894
CN(N=O)C1=C(NC2CCCCC2)C(=O)c2ccccc2C1=O | 33.3 | 57.9 | 65.4 | 57.2 ± 5.8 | 1520
COc1ccc(C(=O)C2CC2c2ccc(Cl)cc2)cc1 (stereo not drawn) | 8.22 | 39.3 | 58.3 | 22 ± 8.6 | 2700
CCOc1cc2c(cc1OCC)C(c1cc(Cl)ccc1O)NCC2 (stereo not drawn) | 3.63 | 17.7 | 64.1 | 46.8 ± 4.8 | 1800
O=C(NNc1cc(N2CCCC2)nc(N2CCCC2)n1)c1ccccc1 | 16.2 | 24.6 | 62.1 | 27.4 ± 0.88 | 6540
CCCCc1ccc(NS(=O)(=O)c2cc3c4c(c2)CCN4C(=O)CC3)cc1 | 12 | 12.8 | 34.4 | 36.5 ± 32 | –
CCOc1ccc2c(c1)CN(Cc1ccc(Cl)cc1)CO2 | < 0 | 11.2 | 31.5 | 24.6 ± 13 | 3960
Cn1c(=O)n(C)c2cc(CNCCNc3ccnc4cc(Cl)ccc34)ccc21 | 38.4 | 37.2 | 33.7 | 25.7 ± 41 | 64.8
Nc1ccc(-c2nc3cc(Cc4ccc5[nH]c(-c6ccc(N)cc6)nc5c4)ccc3[nH]2)cc1 | 51.3 | 70.1 | 76 | 59.1 ± 11 | 218
CC(=O)c1ccc(NC(=O)CSc2nc(-c3ccccc3Cl)ns2)cc1 | 34 | 71.8 | 76.5 | 78.8 ± 6.6 | 412
Cc1ccc2c(C)nc(Nc3nc(C)cc(-c4ccccc4)n3)nc2c1 | 17.7 | 37.8 | 55.7 | 70.4 ± 25 | 6670
c1ccc2cc3c(Nc4ccc(N5CCOCC5)cc4)ccnc3cc2c1 | 36.9 | 52.5 | 60.8 | 60.2 ± 14 | 2510

SMILES | % inhibition of schizont-to-ring transition ([1]; 1 µM) [%] | % inhibition of schizont-to-ring transition ([1]; 3 µM) [%] | % inhibition of schizont-to-ring transition ([1]; 10 µM) [%] | % growth inhibition [2] [%] | EC50 growth inhibition [3] [nM]
CCCCCC(=O)N1c2ccccc2N=C2CC(c3ccc(OC)c(OC)c3)CC(O)=C2C1c1ccc(C(F)(F)F)cc1 (stereo not drawn) | 47.1 | 59.5 | 73.2 | 60.4 ± 3 | 205
C=C(C)CCC(C)N1CCC(N2CCC(C(=O)NCCc3ccccc3)CC2)CC1 (stereo not drawn) | < 0 | 1.71 | 48 | 20.9 ± 16 | 3960
CCOc1ccc(CCNC(=O)c2cccs2)cc1OCC | 10.1 | 47 | 68.3 | 72 ± 8.3 | 691
c1ccc(Cn2c(N=Nc3c(Nc4ccccc4)ccc4ccccc34)nc3ccccc32)cc1 | 14.6 | 25.9 | 52.2 | 29.1 ± 12 | 3520
Oc1c(CN2CCN(c3ccccc3F)CC2)cc(Br)c2cccnc12 | 7.79 | 26.8 | 49.7 | 74.2 ± 13 | 7420
CCOC(=O)c1cnc2ccc(OC)cc2c1Nc1ccc(N2CCN(C)CC2)cc1 | 46.5 | 63.7 | 78.1 | 24.9 ± 43 | 2980
Cc1ccc(-c2cc3c(nn2)-c2ccccc2C3=O)cc1 | 33.1 | 51.8 | 59.3 | < 0 | 214
CCOc1ccc(C2N(C)c3ccccc3N2C)cc1 | 15.8 | 20.8 | 40.5 | 49.6 ± 43 | 5840
CCN(CC)CCNc1ccnc2cc3ccccc3cc12 | 23.6 | 49 | 53.2 | 32.4 ± 7.3 | 192
Cc1nc2ccccc2c(O)c1CC=C(Cl)Cl | 10.8 | 31.3 | 67.4 | 79.46 ± 0.64 | 4560
CCOC(=O)c1cnc2c(C)cccc2c1Nc1ccc(C(C)=O)cc1 | 28.3 | 45.9 | 51.5 | 79.3 ± 2.5 | 550
CCCn1c(=N)c(C(=O)NC2CCCCC2)cc2c(=O)n3cccc(C)c3nc21 | 1.41 | 20.4 | 53.1 | 71.06 ± 0.62 | 3810
OC1CCCCC1C1(NC(=S)Nc2ccccc2)CCCCC1 (stereo not drawn) | 23.3 | 45.7 | 53.4 | 64 ± 2.9 | 1510
COc1cc2c3cc1Oc1c(OC)c(OC)cc4c1C(Cc1ccc(O)c(c1)Oc1ccc(cc1)CC3N(C)CC2)N(C)CC4 (stereo not drawn) | 0.0123 | 3.67 | 27.2 | 51.7 ± 6.6 | 1360
CCC(C)NCC(O)(c1ccc(Cl)cc1)c1ccc(Cl)cc1 (stereo not drawn) | 38.4 | 57 | 63.8 | 74.6 ± 8.3 | 632
CCOc1c(Cl)cc(CNCC(O)c2ccccc2)cc1OC (stereo not drawn) | 11.2 | 15.1 | 50.5 | 21.7 ± 8.2 | 956
CCOC(=O)c1cnc2ccc(CC)cc2c1O | 49.9 | 61.3 | 62.8 | 78.7 ± 3.3 | 482
COc1cccc(Cn2c(Oc3ccccc3)nc3c2c(=O)n(C)c(=O)n3C)c1 | 23.6 | 27.1 | 45.9 | 72.4 ± 4.8 | 516
COC(=O)c1ccc(C2C3=C(O)CC(c4ccc(F)cc4)CC3=Nc3ccccc3N2C(=O)c2ccccc2)cc1 (stereo not drawn) | 35.1 | 51.7 | 56 | 61.3 ± 10 | 6360
O=C(Nc1ccccc1O)c1ccc(-c2ccc(Cl)cc2Cl)o1 | 28.6 | 26.9 | 48 | 23.8 ± 5.9 | 1670
FC(F)(F)c1cccc(Nc2nc(-c3ccccc3)nc3ncccc23)c1 | 24.9 | 33.8 | 42.3 | 51.1 ± 1.4 | –
COCCn1c(C)nc2ccccc2c1=O | 6.75 | 13.7 | 31.5 | 57.4 ± 3.5 | 1520
CCN(CC)CCNc1ncnc2c1[nH]c1ccc(Cl)cc12 | 16.1 | 52 | 66.5 | 23.3 ± 2.6 | 230
COc1ccc(-c2cc(=O)oc3c4c(ccc23)OCN(Cc2ccc(F)cc2)C4)cc1 | < 0 | 10 | 48.3 | 63.1 ± 3.1 | 4110
COc1cc2cc(C(=O)Nc3ccccc3)c(N)nc2cc1OC | 8.51 | 35.6 | 57.9 | 78.1 ± 1.2 | 847
COc1ccc2nc(C)cc(Nc3ccccc3O)c2c1 | 20.4 | 41.3 | 66.3 | 22.7 ± 2.9 | 438

SMILES | % inhibition of schizont-to-ring transition ([1]; 1 µM) [%] | % inhibition of schizont-to-ring transition ([1]; 3 µM) [%] | % inhibition of schizont-to-ring transition ([1]; 10 µM) [%] | % growth inhibition [2] [%] | EC50 growth inhibition [3] [nM]
COc1cc(SC)ccc1C(=O)N1CCCC(C)C1 (stereo not drawn) | 0.295 | < 0 | 12.1 | 33.1 ± 4.9 | 3240
C=CCc1c(C)nc2ccccc2c1O | 27.3 | 29.6 | 40.5 | 72.7 ± 2.5 | 2260
COc1ccc(/C=C2/SC(=Nc3ccccc3)NC2=O)cc1 | 10.4 | 23 | 53 | 22.4 ± 12 | 9090
CC(C)(C)c1ccc2c(c1)CN(Cc1ccc(Cl)cc1)CO2 | 16.8 | 49.9 | 66.2 | 34.1 ± 8.2 | 1120
CCOc1ccc(Nc2ccnc3cc(Cl)ccc23)cc1 | 23.3 | 27.2 | 30 | 64.1 ± 7.2 | 3740
Oc1ccccc1CNCC12CC3CC(CC(C3)C1)C2 | 64 | 64.7 | 67.1 | 52.8 ± 12 | 96.1
Oc1ccc(C(=C(Cl)Cl)c2ccc(O)cc2)cc1 | 11.4 | 53.3 | 73.2 | 78.3 ± 3.7 | 877
CCCc1c(C)nc2ccc(Br)cc2c1O | 17 | 24 | 44.8 | 39.6 ± 25 | 4280
CC(C)(C)c1ccc(C(=O)Nc2c3c(nn2-c2cccc(Cl)c2)CSC3)cc1 | 15.4 | 19.9 | 32.6 | 46.7 ± 4.1 | –
CC1CN(C(=O)c2sc3ccccc3c2Cl)CC(C)O1 (stereo not drawn) | 15.7 | 21.4 | 24.2 | 74 ± 3.4 | 29.1
O=C(NCc1ccco1)C1CCN(S(=O)(=O)c2ccc(Cl)cc2)CC1 | 21.3 | 34.6 | 57.8 | 55.4 ± 6.6 | 1030
N#Cc1nc(Cc2cccc3ccccc23)oc1N1CCN(C(c2ccccc2)c2ccccc2)CC1 | 21.5 | 27.3 | 52.8 | 44.8 ± 8.8 | 5260
CCOc1c(Br)cc(C2C(C(=O)OC)=CN(C)C=C2C(=O)OC)cc1OC | 49.6 | 75.9 | 79.6 | 70.4 ± 17 | 480
Cc1cccc(-n2ncc3c(O)nc(-n4nc(C)cc4NC(=O)c4cc5ccccc5o4)nc32)c1 | 16.7 | 23.7 | 27.8 | 30.2 ± 52 | –
CC(C)(C)c1ccc(C2CC3=Nc4ccccc4N(C(=O)c4ccccc4Cl)C(c4ccc(F)cc4)C3=C(O)C2)cc1 (stereo not drawn) | < 0 | 5.12 | 41.6 | 68.4 ± 10 | 3410
Cc1ccccc1OCCSc1nc2ccc(NC(=O)c3ccccc3)cc2s1 | 32 | 33 | 43.1 | 29.6 ± 11 | –
N=c1c2ccccc2nnn1-c1cccc(C(F)(F)F)c1 | 44.5 | 48.1 | 54.3 | 64.1 ± 4.6 | 5760
Cc1ccc(Cn2c(N3CCC(C(=O)NCc4cccs4)CC3)nc3ccccc32)cc1 | 47.3 | 68 | 69.8 | 66.1 ± 3.6 | 744
COc1ccc2nc(N)nc(C)c2c1 | 2.26 | 6.22 | 17.5 | 41.7 ± 16 | –
CN1CCN(c2c3c(c(C#N)c4nc5ccccc5n24)CCC3)CC1 | < 0 | 5.66 | 21.3 | 39.4 ± 4.5 | –
COc1ccc(C(=O)NC(c2ccc(Cl)cc2Cl)c2cc(Cl)c3cccnc3c2O)cc1 (stereo not drawn) | 19.2 | 19.5 | 25.5 | 32.1 ± 5.2 | –
COc1ccc(C2=C(c3ccc(OC)cc3)C3(c4ccccc4)C(=O)C2(c2ccccc2)C2C(=O)N(c4ccc(C)cc4)C(=O)C23)cc1 (stereo not drawn) | < 0 | < 0 | 24.9 | 41.5 ± 7.4 | –
CCC(=O)Nc1nnc(Cc2ccc(OC)c(OC)c2)s1 | 4.3 | 5.07 | 13.6 | 56.6 ± 7.6 | –
O=C(Nc1ccc(-c2nc3cc(NC(=O)c4ccc(Cl)cc4)ccc3[nH]2)cc1)c1ccc(Cl)cc1 | < 0 | 18.9 | 41.1 | 21.6 ± 3 | –
